# Patent US10821115B2, “Compounds that inhibit Mcl-1 protein” (priority 2017, dated 2020)
# Read-outs that look alike come from different tables or passages of the source.
# Columns and labels:
# [1] = system: human multiple myeloma cell line, OPM-2; experiment: Cell viability assay (OPM-2 10 FBS), CellTiter-Glo; format: cell-based
# Method in brief: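 OPM-2 cells at 3000 cells/well in RPMI 1640 with 10% FBS were exposed to serially diluted compounds for 16 h at 37 °C, 5% CO2.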
# [2] = target: recombinant human Mcl-1 (residues 171-327) / Bim interaction (Homo sapiens (Human), UniProt Q07820); experiment: biochemical; format: binding; conditions: TR-FRET, Mcl-1(171-327) / biotin-Bim (51-76); read-out: Mcl-1 HTRF IC50
# [3] = read-out: OPM-2 10% FBS IC50 IP, OPM-2 cells, 10% FBS, 16 h, CellTiter-Glo
# [4] = Homo sapiens, OPM-2, 16 h, read-out: OPM-2 10% FBS IC50 IP, OPM-2 cells, 10% FBS, 16 h, CellTiter-Glo
# Chain of recombinant human Mcl-1 (residues 171-327) / Bim interaction (Q07820 171-327): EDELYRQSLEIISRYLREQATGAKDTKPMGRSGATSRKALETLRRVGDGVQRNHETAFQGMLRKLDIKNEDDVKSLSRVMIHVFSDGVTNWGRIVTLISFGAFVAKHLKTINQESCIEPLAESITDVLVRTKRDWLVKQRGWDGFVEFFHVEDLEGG
SMILES,"IC50 [1, 3]",IC50 [2],"IC50 [1, 4]"
"C[C@@H]1[C@@H](C)C/C=C/[C@](O)(C(C)(C)C#N)[C@@H]2CC[C@H]2CN2C[C@@]3(CCCc4cc(Cl)ccc43)COc3ccc(cc32)C(=O)NS1(=O)=O [Example 100060, 2-((1S,3′R,6′R,7′R,8′E,11′S,12′R)-6-chloro-7′-hydroxy-11′,12′-dimethyl-13′,13′-dioxido-15′-oxo-3,4-dihydro-2H-spiro[naphthalene-1,22′-[20]oxa[13]thia[1,14]diazatetracyclo [14.7.2.0~3,6~.0~19,24~]pentacosa[8,16,18,24]tetraen]-7′-yl)-2-methylpropanenitrile]",5980 nM,4.01 nM,–
"COC(=O)[C@]1(O)/C=C/C[C@H](C)[C@@H](C)S(=O)(=O)NC(=O)c2ccc3c(c2)N(C[C@@H]2CC[C@H]21)C[C@@]1(CCCc2cc(Cl)ccc21)CO3 [Example 100061, methyl (1S,3′R,6′R,7′S,8′E,11′S,12′R)-6-chloro-7′-hydroxy-11′,12′-dimethyl-15′-oxo-3,4-dihydro-2H-spiro[naphthalene-1,22′-[20]oxa[13]thia[1,14]diazatetracyclo [14.7.2.0~3,6~.0~19,24~]pentacosa[8,16,18,24]tetraene]-7′-carboxylate 13′,13′-dioxide]",–,0.78 nM,529 nM
"C[C@@H]1[C@@H](C)C[C@H]2CCC[C@](O)(C2)[C@@H]2CC[C@H]2CN2C[C@@]3(CCCc4cc(Cl)ccc43)COc3ccc(cc32)C(=O)NS1(=O)=O [Example 100062, (1S,3′R,6′R,7′S,11′R,13′S,14′R)-6-chloro-7′-hydroxy-13′,14′-dimethyl-3,4-dihydro-2H,17′H-spiro[naphthalene-1,24′-[22]oxa[15]thia[1,16]diazapentacyclo [16.7.2.1~7,11~.0~3,6~.0~21,26~]octacosa [18,20,26]trien]-17′-one 15′,15′-dioxide]",–,4.25 nM,9940 nM
"C[C@@H]1[C@@H](C)C[C@@H](N(C)C)C[C@](C)(O)[C@@H]2CC[C@H]2CN2C[C@@]3(CCCc4cc(Cl)ccc43)COc3ccc(cc32)C(=O)NS1(=O)=O [Example 100063, (1S,3′R,6′R,7′S,9′R,11′S,12′R)-6-chloro-9′-(dimethylamino)-7′-hydroxy-7′,11′,12′-trimethyl-3,4-dihydro-2H,15′H-spiro[naphthalene-1,22′-[20]oxa[13]thia[1,14]diazatetracyclo [14.7.2.0~3,6~.0~19,24~]pentacosa[16,18,24]trien]-15′-one 13′,13′-dioxide]",–,2.32 nM,2260 nM
"CN[C@@H]1C[C@H](C)[C@@H](C)S(=O)(=O)NC(=O)c2ccc3c(c2)N(C[C@@H]2CC[C@H]2[C@@](C)(O)C1)C[C@@]1(CCCc2cc(Cl)ccc21)CO3 [Example 100064, (1S,3′R,6′R,7′S,9′R,11′S,12′R)-6-chloro-7′-hydroxy-7′,11′,12′-trimethyl-9′-(methylamino)-3,4-dihydro-2H,15′H-spiro[naphthalene-1,22′-[20]oxa[13]thia[1,14]diazatetracyclo [14.7.2.0~3,6~.0~19,24~]pentacosa[16,18,24]trien]-15′-one 13′,13′-dioxide]",–,2.54 nM,3730 nM
"CN[C@@H]1C[C@H](C)[C@@H](C)S(=O)(=O)NC(=O)c2ccc3c(c2)N(C[C@@H]2CC[C@H]2[C@@](C)(O)C1)C[C@@]1(CCCc2cc(Cl)ccc21)CO3 [Example 100065, (1S,3′R,6′R,7′S,9′R,11′S,12′R)-6-chloro-7′-hydroxy-7′,11′,12′-trimethyl-9′-(methylamino)-3,4-dihydro-2H,15′H-spiro[naphthalene-1,22′-[20]oxa[13]thia[1,14]diazatetracyclo [14.7.2.0~3,6~.0~19,24~]pentacosa[16,18,24]trien]-15′-one 13′,13′-dioxide]",7390 nM,4.85 nM,–
"CN[C@@H]1C[C@H](C)[C@@H](C)S(=O)(=O)NC(=O)c2ccc3c(c2)N(C[C@@H]2CC[C@H]2[C@@](C)(O)C1)C[C@@]1(CCCc2cc(Cl)ccc21)CO3 [Example 100066, (1S,3′R,6′R,7′S,9′R,11′S,12′R)-6-chloro-7′-hydroxy-7′,11′,12′-trimethyl-9′-(methylamino)-3,4-dihydro-2H,15′H-spiro[naphthalene-1,22′-[20]oxa[13]thia[1,14]diazatetracyclo [14.7.2.0~3,6~.0~19,24~]pentacosa[16,18,24]trien]-15′-one 13′,13′-dioxide]",3820 nM,1.43 nM,–
"CCOP(=O)(OCC)C(F)(F)[C@]1(O)/C=C/C[C@H](C)[C@@H](C)S(=O)(=O)NC(=O)c2ccc3c(c2)N(C[C@@H]2CC[C@H]21)C[C@@]1(CCCc2cc(Cl)ccc21)CO3 [Example 100067, diethyl (((1S,3′R,6′R,7′S,8′E,11′S,12′R)-6-chloro-7′-hydroxy-11′,12′-dimethyl-13′,13′-dioxido-15′-oxo-3,4-dihydro-2H-spiro[naphthalene-1,22′-[20]oxa[13]thia[1,14]diazatetracyclo [14.7.2.0~3,6~.0~19,24~]pentacosa[8,16,18,24]tetraen]-7′-yl)(difluoro)methyl)phosphonate]",271 nM,1.01 nM,–
"CCOP(=O)(OCC)C(F)(F)[C@]1(O)/C=C/C[C@H](C)[C@@H](C)S(=O)(=O)NC(=O)c2ccc3c(c2)N(C[C@@H]2CC[C@H]21)C[C@@]1(CCCc2cc(Cl)ccc21)CO3 [Example 100068, diethyl (((1S,3′R,6′R,7′S,8′E,11′S,12′R)-6-chloro-7′-hydroxy-11′,12′-dimethyl-13′,13′-dioxido-15′-oxo-3,4-dihydro-2H-spiro[naphthalene-1,22′-[20]oxa[13]thia[1,14]diazatetracyclo [14.7.2.0~3,6~.0~19,24~]pentacosa[8,16,18,24]tetraen]-7′-yl)(difluoro)methyl)phosphonate]",765 nM,4.41 nM,–
"C[C@@H]1[C@@H](C)C/C=C/[C@@](O)(C(F)F)[C@@H]2CC[C@H]2CN2C[C@@]3(CCCc4cc(Cl)ccc43)COc3ccc(cc32)C(=O)NS1(=O)=O [Example 100069, (1S,3′R,6′R,7′S,8′E,11′S,12′R)-6-chloro-7′-(difluoromethyl)-7′-hydroxy-11′,12′-dimethyl-3,4-dihydro-2H,15′H-spiro[naphthalene-1,22′-[20]oxa[13]thia[1,14]diazatetracyclo [14.7.2.0~3,6~.0~19,24~]pentacosa[8,16,18,24]tetraen]-15′-one 13′,13′-dioxide]",250 nM,0.457 nM,–
"C[C@@H]1[C@@H](C)C/C=C/[C@@](O)(C(F)F)[C@@H]2CC[C@H]2CN2C[C@@]3(CCCc4cc(Cl)ccc43)COc3ccc(cc32)C(=O)NS1(=O)=O [Example 100070, (1S,3′R,6′R,7′S,8′E,11′S,12′R)-6-chloro-7′-(difluoromethyl)-7′-hydroxy-11′,12′-dimethyl-3,4-dihydro-2H,15′H-spiro[naphthalene-1,22′-[20]oxa[13]thia[1,14]diazatetracyclo [14.7.2.0~3,6~.0~19,24~]pentacosa[8,16,18,24]tetraen]-15′-one 13′,13′-dioxide]",1070 nM,4.85 nM,–
"CO[C@@]1(C(F)F)/C=C/C[C@H](C)[C@@H](C)S(=O)(=O)NC(=O)c2ccc3c(c2)N(C[C@@H]2CC[C@H]21)C[C@@]1(CCCc2cc(Cl)ccc21)CO3 [Example 100071, (1S,3′R,6′R,7′S,8′E,11′S,12′R)-6-chloro-7′-(difluoromethyl)-7′-methoxy-11′,12′-dimethyl-3,4-dihydro-2H,15′H-spiro[naphthalene-1,22′-[20]oxa[13]thia[1,14]diazatetracyclo [14.7.2.0~3,6~.0~19,24~]pentacosa[8,16,18,24]tetraen]-15′-one 13′,13′-dioxide]",–,1.54 nM,588 nM
"C[C@@H]1[C@@H](C)C/C=C/[C@@](O)(CS(C)(=O)=O)[C@@H]2CC[C@H]2CN2C[C@@]3(CCCc4cc(Cl)ccc43)COc3ccc(cc32)C(=O)NS1(=O)=O [Example 100072, (1S,3′R,6′R,7′S,8′E,11′S,12′R)-6-chloro-7′-hydroxy-11′,12′-dimethyl-7′-((methylsulfonyl)methyl)-3,4-dihydro-2H,15′H-spiro[naphthalene-1,22′-[20]oxa[13]thia[1,14]diazatetracyclo [14.7.2.0~3,6~.0~19,24~]pentacosa[8,16,18,24]tetraen]-15′-one 13′,13′-dioxide]",–,0.451 nM,1720 nM
"C[C@@H]1[C@@H](C)C/C=C/[C@@](O)(CS(C)(=O)=O)[C@@H]2CC[C@H]2CN2C[C@@]3(CCCc4cc(Cl)ccc43)COc3ccc(cc32)C(=O)NS1(=O)=O [Example 100073, (1S,3′R,6′R,7′S,8′E,11′S,12′R)-6-chloro-7′-hydroxy-11′,12′-dimethyl-7′-((methylsulfonyl)methyl)-3,4-dihydro-2H,15′H-spiro[naphthalene-1,22′-[20]oxa[13]thia[1,14]diazatetracyclo [14.7.2.0~3,6~.0~19,24~]pentacosa[8,16,18,24]tetraen]-15′-one 13′,13′-dioxide]",1200 nM,0.346 nM,–
"CC[C@]1(O)CCC[C@H](C)[C@@H](C)S(=O)(=O)NC(=O)c2ccc3c(c2)N(C[C@@H]2CC[C@H]21)C[C@@]1(CCCc2cc(Cl)ccc21)CO3 [Example 100076, (1S,3′R,6′R,7′S,11′S,12′R)-6-chloro-7′-ethyl-7′-hydroxy-11′,12′-dimethyl-3,4-dihydro-2H,15′H-spiro[naphthalene-1,22′-[20]oxa[13]thia[1,14]diazatetracyclo [14.7.2.0~3,6~.0~19,24~]pentacosa[16,18,24]trien]-15′-one 13′,13′-dioxide]",–,9.66 nM,2670 nM
